Source: patent US20060029563A1, “Cutanceous metabolic bio-activator” (Jean-Noel Thorel, priority 2002, published 2006)
Where a SMILES comes first, the peptide text is derived from it. [ ]: non-standard residue; d: D form. Cit = NC(=O)NCCC[C@H](N)C(=O)O

How the values were obtained:
[1] = test system: HaCaT cells; test: growth of HaCaT cells, WST-1 conversion method; assay type: cell-based, human
Description: The objective of this trial is to evaluate the effect of the combination ATP+peptides, added to a culture medium, on the growth of an immortalized line of human […], HaCaT cells.
The study is carried out on a culture prepared in the standard culture medium for HaCaT cells, DMEM (Sigma) in the presence of fetal calf serum (SVF) at 2 or 10%.
The HaCaT cells are seeded at low density in a 96-well plate in the standard medium (DMEM+10% SVF) and grow for 24 h after seeding in this medium.
On the 2nd day, the cells are placed under the various conditions studied.
The test concentrations in terms of ATP, β-alanyl-L- histidine (Carnosine) and L-citrullyl-L-arginine (exsy- algine) are determined subsequent to preliminary cytotoxicity studies.
The following conditions are prepared: • A control condition: culture medium alone+SVF • A condition consisting of β-alanyl-L-histidine alone at 0.5%. • A condition consisting of L-citrullyl-L-arginine are known at 0.5%. • A condition consisting of ATP alone at 1 μg/ml. • A condition consisting of ATP (1 μg/ml)+β-alanyl-L-histidine (0.5%). • A condition consisting of ATP (1 μg/ml)+L-citrullyl-L-arginine (0.5%) • A condition consisting of ATP (1 μg/ml)+β-alanyl-L-histidine (0.5%)+L- citrullyl-L-arginine (0.5%).
These various conditions are prepared both in the DMEM containing 2% SVF and the DMEM containing 10% SVF.
Each condition is prepared in triplicate. The media are not renewed in the course of the experiment.
The cell density is evaluated 24 h after seeding of the cells, before the cells are brought into contact with the various study conditions (=T0), and the growth of the HaCaT cells is then evaluated on the 2nd, 5th and 7th days of culture by means of the WST-1 conversion method (reading at 450 nm).
The cell growth is objectified by measuring the cell viability at various times of the experiment. The results obtained give the percentage cell viability calculated with respect to the initial cell density at T0, for which it is estimated that the cell density is equal to 100%. The effects of the various products on cell growth are analyzed at the various times of the experiment, relative to the nontreated control at the same time of the experiment.

[2] = test system: normal human melanocytes; test: comet assay on UVA-irradiated normal human melanocytes; assay type: cell-based; settings: 4 mM each
Description: Cultures of normal human melanocytes (MHNs) are prepared from fore skins of infants and of newborns suffering from phimosis. The melanocytes obtained from skin fragments are placed in MCDB 153 medium (Sigma St Louis, Mo., USA) supplemented with 30 μg/ml of bovine pituitary extract (BPE) (Life Technologies, Paisley, England), 2% of fetal calf serum (SVF) (Dominique Dutscher, Brumath, France), 16 nM of phorbol-12-myristate-13-acetate (Sigma), 5 μg/ml of insulin and 1.1 μM of hydrocortisone (Sigma). The cultures are maintained in an incubator at 37° C. and-in-an atmosphere containing 5% CO2. Pure cultures of melanocytes are obtained after 2 to 3 weeks.
All the compositions tested are solubilized in DMSO at the maximum concentrations permitted. Preliminary trials are carried out in order to determine the subtoxic concentrations on the keratinocytes. The final concentration of DMSO is always less than 2%.
The melanocytes are brought into contact with the product for 30 min at 37° C., and are then irradiated with UVA radiation. The UVA irradiations are generated by means of a Bio-Sun UV-irradiator (Vilbert Lourmat, Marne la Vallée). This device is equipped with monochromatic lamps that emit a wavelength of 312 nm and/or 365 nm. The lamps deliver a calculated energy by means of an RMW-365/312 radiometer. The energies delivered are 0.8 J/cm^2 for the UVA range. The “comet” assay is carried out immediately after exposure. Two types of controls are included in these experiments: • negative controls: melanocytes that are not treated but […]; melanocytes treated for 30 min with the composition tested, but not irradiated. • Positive control: melanocytes that are not treated but are irradiated.
After treatment with a typsin/EDTA mixture (0.05%/0.02%) for 2 to 3 minutes, the cultures are 15 recovered by centrifugation and placed in PBS buffer without Ca++ and without Mg++ (Sigma). Following a second centrifugation, the cells (4.5-5.0×10^4 cells) are suspended in 0.5% low melting point (LMP) agarose (Sigma). The mixture is directly deposited onto microscope slides coated with a prelayer of agarose (1.6%) dried overnight at ambient temperature and freshly precoated with a second layer of agarose (0.8%).
The protocol for the comet assay is that of De Meo et al., incorporating the “dry slide” technique. After the irradiations, the slides are placed in a lysis bath (2.5 M NaCl, 100 mM Na2EDTA, 10 mM Tris-HCl, pH 10, 1% of sodium sarcosinate, 1% of triton X-100 and 10% of DMSO). The cell lysis is performed at 4° C. for 60 minutes, followed by denaturation of the DNA at ambient temperature for 20 min in a strongly alkaline solution (1 mM Na2EDTA and 300 mM NaOH, pH>13.0). After electrophoresis (25 V, 300 mA) for 20 min., the slides are neutralized with the Tris-HCl buffer (0.4 M; pH 7.4) and dehydrated in absolute ethanol or methanol.
The slides are stained with ethidium bromide solution (75 μl of 2 μg/ml) and observed using a BH2-RFL fluorescence microscope (Olympus, Japan) equipped with a 20BG-W dichroic filter (excitation: 515-560 nm; emission: 590 nm) and with an Apo D-Plan 20× objective. The image analysis is carried out with a high sensitivity monochrome CCD camera (Cohu 4912-5000) coupled to a Matrox IP-8 acquisition board. The entire assembly is controlled by means of the Fenestra Komet software (Kinetic Imaging, Liverpool, UK, version 3.1).
A total of 100 cells per sample (50 cells/slide) is analyzed. The parameter used is “tail DNA”, which is defined as the percentage of DNA in the tail of the “comet”. For each series of experiments, a negative control (nonirradiated cells) and a positive control (irradiated cells without composition tested) are included.
Nonlinear regressions based on a χ^2 function are calculated directly from the TM (tail moment) distribution frequencies for each sample. Specifically, Bauer et al. have recently shown that these distributions follow a χ^2 function. […]

[3] = test system: secretion of endothelin-1 by normal human keratinocytes; test: endothelin-1 secretion by keratinocytes (ELISA), nonirradiated or after UV B irradiation; assay type: cell-based; settings: for increase in the basal secretion of endothelin-1 compared with the water control: nonirradiated
Description: The trial is carried out on an in vitro culture of normal human keratinocytes seeded at a density of 10^5 cells/well in 6-well plates.
The keratinocytes, seeded in 6-well plates at a density of 10^5 cells/well, are cultured in standard medium (Epilife Sigma) for 48 h. Before irradiation, the culture medium is removed, the cells are rinsed with PBS buffer, and 1 ml thereof is left in contact with the cells for the irradiation. The keratinocytes are subjected to a UV B irradiation (312 nm) of 20 mJ/cm^2. An identical nonirradiated condition is realized in parallel.
After irradiation (and on the nonirradiated parallel), the PBS is removed and the cells are placed under the various conditions studied: • control of water in the culture medium, […]
Each condition is realized in triplicate.
After contact for 24 h or 48 h after irradiation, the conditioned culture supernatants are recovered. The amount of endothelin-1 secreted by the keratinocytes is measured on 100 μl of supernatant by means of an ELISA technique (R&D Systems, Abingdon, UK). The endothelin-1 levels are calculated by means of the standard curve prepared with synthesized human endothelin-1. The results are expressed in pg of endothelin-1 standardized with respect to the protein concentration (pg ET-1/mg of proteins).

[4] = prior cell viability test on normal human keratinocytes; assay type: cell-based; settings: after 48 h of contact, highest 2 concentrations, 0.0001% and 0.01%
Description: In order to determine the concentrations applicable in the context of the trial, a prior cell viability test is carried out on normal human keratinocytes.
L-citrullyl-L-arginine is dissolved in water and the final concentration is fixed at 0.1%.
6 dilutions of L-citrullyl-L-arginine from 10^−4% to 10^−2% are brought into contact with the cells for 24 h and 48 h. A “water” condition is realized as a control.
For the trial, the L-citrullyl-L-arginine will be tested at the highest 2 concentrations that allow the cell viability to be maintained at a level greater than 80%, after 48 h of contact, i.e. 0.0001% and 0.01%.

[5] = NI: nonirradiated melanocytes pretreated 30 min
[6] = melanocytes irradiated with UVA (0.8 J/cm^2), pretreated 30 min

NCCC(=O)N[C@@H](Cc1c[nH]cn1)C(=O)O [β-alanyl-L-histidine]
effect on cell growth (in words) ([1]; after 2 days of culture, 0.1%): no effect on growth | cell growth relative to the nontreated control ([1]; after 2 days of culture, 0.5%, 2% SVF): +22% | cell growth relative to the nontreated control ([1]; after 5 days of culture, 0.5%): +12% | effect on cell viability / growth (in words), conclusion ([1]; conclusion of the trial, at the concentrations tested): exerts a stimulatory effect on cell growth

Nc1ncnc2c1ncn2[C@@H]1O[C@H](COP(=O)(O)OP(=O)(O)OP(=O)(O)O)[C@@H](O)[C@H]1O [ATP, adenosine triphosphate]
OTM-χ^2 [2, 5]: 2.08 ± 0.02 | Degree of protection (%) [2, 6]: 14.6% | OTM-χ^2 [2, 6]: 6.31 ± 0.38 | change in cell viability ([1]; ATP alone, after 2 to 5 days of contact): −5 to −10% | effect on cell viability (in words) ([1]; after 2 days of culture, ATP 1 μg/ml): substantially decreases cell viability | effect on cell viability / growth (in words) ([1]; after 5 days of culture): substantially decreases cell viability | effect on endothelin-1 synthesis (in words) ([3]; ATP alone): do not show any effect

N=C(N)NCCC[C@H](NC(=O)[C@@H](N)CCCNC(N)=O)C(=O)O [L-citrullyl-L-arginine] (H-[Cit]-Arg-OH)
viability at 48 h [4]: > 80% | OTM-χ^2 [2, 5]: 2.06 ± 0.02 | Degree of protection (%) [2, 6]: 67.7% | OTM-χ^2 [2, 6]: 2.22 ± 0.20 | cell growth relative to the nontreated control ([1]; after 2 days of culture, 0.1% and 0.5%): +5% | effect on cell viability / growth (in words) ([1]; after 5 days of culture): does not stimulate cell growth | effect on the secretion of endothelin-1 (in words) ([3]; 0.01%, conclusion): considerable activating effect | increase in secretion of endothelin-1 compared with the irradiated water control ([3]; UV B 20 mJ/cm^2, 24 h, 0.0001%): 6% | increase in secretion of endothelin-1 compared with the irradiated water control ([3]; UV B 20 mJ/cm^2, 24 h, 0.001%): 28% | increase in secretion of endothelin-1 compared with the irradiated water control ([3]; UV B 20 mJ/cm^2, 48 h, 0.0001%): 4% | increase in secretion of endothelin-1 compared with the irradiated water control ([3]; UV B 20 mJ/cm^2, 48 h, 0.01%): 63% | increase in the basal secretion of endothelin-1 compared with the water control ([3]; 24 h, 0.0001%): 20% | increase in the basal secretion of endothelin-1 compared with the water control ([3]; 24 h, 0.01%): 70% | increase in the basal secretion of endothelin-1 compared with the water control ([3]; 48 h, 0.0001%): 26% | increase in the basal secretion of endothelin-1 compared with the water control ([3]; 48 h, 0.01%): 82%
